# Assay results taken from patent US20240116951A1, “HETEROCYCLIC COMPOUNDS AND USES THEREOF” (Kumquat Biosciences Inc., priority 2022, published 2024).
# How the values were obtained:
# Type in all cases: binding
# KRAS G12S = molecular target: T1, KRAS G12S (Homo sapiens, UniProt P01116, G12S); assay: HTRF assay of K-Ras G12S interaction with SOS1 (PPI-HTRF); conditions: 5 nM KRAS G12S, read-out: PPI-HTRF-5 nM KRAS G12S
# T1 construct: made in house; host or cells: E. coli, e.g. BL21 (DE3)
# Summary of the method: (§1)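 Equilibrium binding between GST-K-Ras and His-tagged human SOS1 is measured by FRET from a europium anti-GST donor to an XL665 anti-His acceptor. Compounds are run in duplicate at 10, 2.5, 0.63, 0.16, 0.04 and 0.01 μM, and IC50 is calculated from the 665/620 nm ratio.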
# KRAS WT = molecular target: T2, KRAS WT (Homo sapiens, UniProt P01116); assay: HTRF assay of wildtype K-Ras interaction with SOS1 (PPI-HTRF); conditions: HTRF, 5 nM KRAS WT; read-out: PPI-HTRF-5 nM KRAS WT
# T2 construct: made in house; host or cells: E. coli, e.g. BL21 (DE3)
# T2 sequence (P01116 1-188 isoform P01116-2): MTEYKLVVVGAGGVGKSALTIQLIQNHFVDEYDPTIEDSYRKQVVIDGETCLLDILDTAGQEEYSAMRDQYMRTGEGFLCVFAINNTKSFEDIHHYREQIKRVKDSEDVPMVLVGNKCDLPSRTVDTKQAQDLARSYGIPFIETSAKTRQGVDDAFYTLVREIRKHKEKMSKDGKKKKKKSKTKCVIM
# Summary of the method: as §1
# KRAS G12D = molecular target: T3, KRAS G12D (Homo sapiens, UniProt P01116, G12D); assay: HTRF assay of K-Ras G12D interaction with SOS1 (PPI-HTRF); conditions: HTRF, 5 nM KRAS G12D; read-out: PPI-HTRF-5 nM KRAS G12D
# T3 construct: made in house; host or cells: E. coli, e.g. BL21 (DE3)
# T3 sequence (P01116 1-188 isoform P01116-2 G12D): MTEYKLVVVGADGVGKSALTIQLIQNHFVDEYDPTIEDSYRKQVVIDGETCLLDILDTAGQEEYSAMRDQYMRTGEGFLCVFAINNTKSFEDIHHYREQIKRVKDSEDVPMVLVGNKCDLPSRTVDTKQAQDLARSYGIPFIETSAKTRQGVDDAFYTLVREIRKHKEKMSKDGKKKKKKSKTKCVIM
# Summary of the method: as §1
# T1 sequence (P01116 1-188 isoform P01116-2 G12S): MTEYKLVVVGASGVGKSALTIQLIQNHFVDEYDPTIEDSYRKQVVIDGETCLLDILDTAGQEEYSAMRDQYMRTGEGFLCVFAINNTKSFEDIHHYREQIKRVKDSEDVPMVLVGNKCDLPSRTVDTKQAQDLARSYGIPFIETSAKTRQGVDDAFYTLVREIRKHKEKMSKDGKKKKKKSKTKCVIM
IC50 (KRAS G12S),IC50 (KRAS WT),IC50 (KRAS G12D),Compound
< 5 µM,< 5 µM,< 5 µM,"C[C@H]1CN(C(=O)n2cncn2)[C@]12CCN(c1nc(OC[C@@]34CCCN3C[C@H](F)C4)nc3c(F)c(-c4ccc(F)c5sc(N)c(C#N)c45)c(Cl)cc13)C2 [Compound 324, 2-amino-4-(6-chloro-8-fluoro-2-(((2R,7aS)-2-fluorotetrahydro-1H-pyrrolizin-7a(5H)-yl)methoxy)-4-((3S,4R)-3-methyl-1-(1H-1,2,4-triazole-1-carbonyl)-1,6-diazaspiro[3.4]octan-6-yl)quinazolin-7-yl)-7-fluorobenzo[b]thiophene-3-carbonitrile]"
< 5 µM,< 5 µM,< 5 µM,"Nc1nc2c(-c3c(Cl)cc4c(N5CCC6(CC5)CCN6C(=O)n5cncn5)nc(OC[C@@]56CCCN5C[C@H](F)C6)nc4c3F)ccc(F)c2s1 [Compound 269, (7-(7-(2-amino-7-fluorobenzo[d]thiazol-4-yl)-6-chloro-8-fluoro-2-(((2R,7aS)-2-fluorotetrahydro-1H-pyrrolizin-7a(5H)-yl)methoxy)quinazolin-4-yl)-1,7-diazaspiro[3.5]nonan-1-yl)(1H-1,2,4-triazol-1-yl)methanone]"
< 5 µM,< 5 µM,< 5 µM,"N#Cc1c(N)sc2c(F)ccc(-c3c(Cl)cc4c(N5CCC6(CCN6C(=O)n6nccn6)C5)nc(OC[C@@]56CCCN5C[C@H](F)C6)nc4c3F)c12 (stereo partly drawn) [Compound 300, 4-(4-(1-(2H-1,2,3-triazole-2-carbonyl)-1,6-diazaspiro[3.4]octan-6-yl)-6-chloro-8-fluoro-2-(((2R,7aS)-2-fluorotetrahydro-1H-pyrrolizin-7a(5H)-yl)methoxy)quinazolin-7-yl)-2-amino-7-fluorobenzo[b]thiophene-3-carbonitrile]"
< 5 µM,< 5 µM,< 5 µM,"N#CCC1CN(c2nc(OC[C@@]34CCCN3C[C@H](F)C4)nc3c(F)c(-c4ccc(F)c5sc(N)c(C#N)c45)c(Cl)cc23)CC12CCN2C(=O)n1cnc(C(F)F)n1 (stereo partly drawn) [Compound 329, 2-amino-4-(6-chloro-4-(8-(cyanomethyl)-1-(3-(difluoromethyl)-1H-1,2,4-triazole-1-carbonyl)-1,6-diazaspiro[3.4]octan-6-yl)-8-fluoro-2-(((2R,7aS)-2-fluorotetrahydro-1H-pyrrolizin-7a(5H)-yl)methoxy)quinazolin-7-yl)-7-fluorobenzo[b]thiophene-3-carbonitrile]"
< 5 µM,< 5 µM,< 5 µM,"Nc1nc2c(-c3c(Cl)cc4c(NC5CC6(CCN6)C5)nc(OC[C@@]56CCCN5C[C@H](F)C6)nc4c3F)ccc(F)c2s1 (stereo partly drawn) [Compound 230, 4-(4-((1-azaspiro[3.3]heptan-6-yl)amino)-6-chloro-8-fluoro-2-(((2R,7aS)-2-fluorotetrahydro-1H-pyrrolizin-7a(5H)-yl)methoxy)quinazolin-7-yl)-7-fluorobenzo[d]thiazol-2-amine]"
< 5 µM,< 5 µM,< 5 µM,"C[C@H](Oc1nc(N2CCCC3(CCN3C(=O)n3cncn3)C2)c2cc(Cl)c(-c3ccc(F)c4sc(N)c(C#N)c34)c(F)c2n1)[C@@H]1CCCN1C (stereo partly drawn) [Compound 201, 4-(4-(1-(1H-1,2,4-triazole-1-carbonyl)-1,6-diazaspiro[3.5]nonan-6-yl)-6-chloro-8-fluoro-2-((S)-1-((S)-1-methylpyrrolidin-2-yl)ethoxy)quinazolin-7-yl)-2-amino-7-fluorobenzo[b]thiophene-3-carbonitrile]"

Compound,IC50 (KRAS G12S),IC50 (KRAS WT),IC50 (KRAS G12D)
"N#Cc1c(N)sc2c(F)ccc(-c3c(Cl)cc4c(N5CCC6(CCN6C(=O)[C@@H]6N[C@H]6C6CC6)C5)nc(OC[C@@]56CCCN5C[C@H](F)C6)nc4c3F)c12 (stereo partly drawn) [Compound 296, 2-amino-4-(6-chloro-4-(1-((2R,3S)-3-cyclopropylaziridine-2-carbonyl)-1,6-diazaspiro[3.4]octan-6-yl)-8-fluoro-2-(((2R,7aS)-2-fluorotetrahydro-1H-pyrrolizin-7a(5H)-yl)methoxy)quinazolin-7-yl)-7-fluorobenzo[b]thiophene-3-carbonitrile]",< 5 µM,< 5 µM,< 5 µM
